Measured values taken from patent US9120994B2, “Terpene alcohols for use in fragrance compositions and perfumed products” (Givaudan S.A., priority 2011, dated 2015).

Test: GC-odor threshold concentration (gas chromatograph with sniff port, panel of trained evaluators)
Settings: for Odor threshold concentration (relative): GC sniff port, panel of trained evaluators, identical conditions, relative values (Ic = 1)
Experimental: Definition: The odour threshold concentration is defined as the lowest concentration of the vapour of an odourant material in the air which can be detected by smell and can be measured by standard methods known in the art. According to standard procedures known to the person skilled in the art, threshold concentrations for volatile perfumery compounds are determined on a gas chromatograph equipped with a sniff port by a panel of trained evaluators. The lowest concentration smelled by each panelist is recorded as the individual threshold concentration expressed in ng (absolute amount of compound delivered at the sniff port).

Row | Compound | Odor threshold concentration (relative) | odor threshold concentration, times lower than compound Ib (compared with [(1S*,2R*)-1-methyl-2-[(S*)-5-methylhex-4-en-2-yl]cyclopropyl]methanol (Ib)) [times] | odor threshold concentration, times lower than citronellol (compared with citronellol) | odor threshold concentration, times lower than geraniol (compared with geraniol)
1 | CC(C)=CC[C@H](C)[C@H]1C[C@]1(C)CO (relative stereo) [Compound Ib, [(1S*,2R*)-1-Methyl-2-[(S*)-5-methylhex-4-en-2-yl]cyclopropyl]methanol] | 100 |  |  | 
2 | CC(C)=CC[C@@H](C)[C@H]1C[C@]1(C)CO (relative stereo) [Compound Ic, [(1S*,2R*)-1-Methyl-2-[(R*)-5-methylhex-4-en-2-yl]cyclopropyl]methanol] | 1 | 100 |  | 
3 | CC(C)=CCCC(C)CCO (stereo not shown) [Citronellol, 3,7-dimethyloct-6-enol, reference compound] | 185 |  |  | 
4 | CC(C)=CCC(C)/C=C(\C)CO (stereo not shown) [Compound Ia, 2,4,7-Trimethylocta-2,6-dien-1-ol] | 70 |  | more than 2 times | more than 11 times
